Test results as given in patent publication US12110293B2, “Substituted triazolo quinoxaline derivatives” (GRÜNENTHAL GMBH, priority 2018, dated 2024).

Target: T1, glucocorticoid receptor (Homo sapiens, UniProt P04150)
T1 construct: expressed in transfected cells
T1 sequence (P04150 524-758 limits assumed): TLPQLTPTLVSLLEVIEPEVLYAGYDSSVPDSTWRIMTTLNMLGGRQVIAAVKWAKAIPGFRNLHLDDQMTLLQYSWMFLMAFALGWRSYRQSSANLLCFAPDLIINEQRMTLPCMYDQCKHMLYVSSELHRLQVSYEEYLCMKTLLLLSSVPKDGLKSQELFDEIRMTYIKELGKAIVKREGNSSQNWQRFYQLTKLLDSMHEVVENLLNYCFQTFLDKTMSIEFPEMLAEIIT
Experiment: Agonistic mode of action on the glucocorticoid receptor (CHO-Gal4/GR luciferase reporter cell line)
Type: cell-based
Conditions: range class observed in the agonistic assay or the antagonistic assay (CHO-Gal4/GR reporter cells); table does not say which mode applies per example
Outline: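 Agonism measured as dose-dependent luciferase luminescence (FLIPR Tetra) from a GAL4-UAS reporter driven by GAL4 DBD fused to GR ligand-binding domain in stable CHO cells. Eight half-log doses, 10 μM to 0.003 μM final in 0.5% DMSO, quadruplicate, on cells seeded 24 h earlier at 5000/well; EC50 derived.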

Row | SMILES | IC50 or EC50 (agonist or antagonist mode not specified)
1 | Cc1c[nH]c2c(-c3c(F)cc4c(c3F)-n3c(Cc5ccccn5)nnc3C(C)(C)N4)cccc12 [Example 75, 7,9-Difluoro-4,4-dimethyl-8-(3-methyl-1H-indol-7-yl)-1-(pyridin-2-yl-methyl)-5H-[1,2,4]triazolo[4,3-a]quinoxaline] | < 100 nM
2 | COc1c(-c2cccc3c2ccn3S(C)(=O)=O)c(F)cc2c1-n1c(C)nnc1C(C)(C)N2 [Example 248, 7-Fluoro-9-methoxy-1,4,4-trimethyl-8-(1-methylsulfonyl-1H-indol-4-yl)-5H-[1,2,4]triazolo[4,3-a]quinoxaline] | 100 to 1000 nM
3 | Cc1nnc2n1-c1c(cc(F)c(-c3cccc4c3cnn4C3CC3)c1F)NC2(C)C [Example 243, 8-(1-Cyclopropyl-1H-indazol-4-yl)-7,9-difluoro-1,4,4-trimethyl-5H-[1,2,4]triazolo[4,3-a]quinoxaline] | 100 to 1000 nM
4 | CC#Cc1c[nH]c2c(-c3c(F)cc4c(c3F)-n3c(CC)nnc3C(C)(C)N4)cccc12 [Example 13, 1-ethyl-7,9-difluoro-4,4-dimethyl-8-(3-(prop-1-yn-1-yl)-1H-indol-7-yl)-4,5-dihydro-[1,2,4]triazolo[4,3-a]quinoxaline] | 100 to 1000 nM
5 | Cc1nnc2n1-c1c(cc(F)c(-c3cc(F)cc4c3cnn4S(C)(=O)=O)c1F)NC2(C)C [Example 276, 7,9-Difluoro-8-(6-fluoro-1-methylsulfonyl-1H-indazol-4-yl)-1,4,4-trimethyl-5H-[1,2,4]triazolo [4,3-a]quinoxaline] | 100 to 1000 nM
6 | Cc1nnc2n1-c1c(cc(F)c(-c3cccc4c3cnn4C)c1F)NC2(C)C [Example 221, 7,9-Difluoro-1,4,4-trimethyl-8-(1-methyl-1H-indazol-4-yl)-5H-[1,2,4]triazolo[4,3-a]quinoxaline] | 100 to 1000 nM
7 | CCc1nnc2n1-c1c(cc(F)c(-c3cc(C)cc4c(C#N)c[nH]c34)c1F)NC2(C)C [Example 17, 7-(1-ethyl-7,9-difluoro-4,4-dimethyl-4,5-dihydro-[1,2,4]triazolo[4,3-a]quinoxalin-8-yl)-5-methyl-1H-indole-3-carbonitrile] | 100 to 1000 nM
8 | Cc1nnc2n1-c1c(cc(F)c(-c3cccc4c3ccn4CCN(C)C)c1F)NC2(C)C [Example 383, [2-[4-(7,9-Difluoro-1,4,4-trimethyl-5H-[1,2,4]triazolo[4,3-a]quinoxalin-8-yl)-1H-indol-1-yl]-ethyl]-dimethyl-amine] | 1000 to 15000 nM
9 | Cc1c[nH]c2c(-c3c(F)cc4c(c3F)-n3c(Cc5ccccn5)nnc3C(C)(C)N4)cc(F)cc12 [Example 74, 7,9-Difluoro-8-(5-fluoro-3-methyl-1H-indol-7-yl)-4,4-dimethyl-1-(pyridin-2-yl-methyl)-5H-[1,2,4]triazolo[4,3-a]quinoxaline] | < 100 nM
10 | Cc1nnc2n1-c1c(cc(F)c(-c3cccc4c3ccn4CC(F)F)c1C(F)F)NC2(C)C [Example 398, 8-[1-(2,2-Difluoro-ethyl)-1H-indol-4-yl]-9-(difluoro-methyl)-7-fluoro-1,4,4-trimethyl-5H-[1,2,4]triazolo [4,3-a]quinoxaline] | 100 to 1000 nM
11 | Cc1nnc2n1-c1c(cc(F)c(-c3cccc4c3cnn4S(C)(=O)=O)c1C(F)F)NC2(C)C [Example 382, 9-(Difluoro-methyl)-7-fluoro-1,4,4-trimethyl-8-(1-methylsulfonyl-1H-indazol-4-yl)-5H-[1,2,4]triazolo[4,3-a]quinoxaline] | 1000 to 15000 nM

Other lines, results leading:

Row | IC50 or EC50 (agonist or antagonist mode not specified) | SMILES
12 | 100 to 1000 nM | COc1c(-c2cc(C(F)(F)F)cc3[nH]ccc23)c(F)cc2c1-n1c(C)nnc1C(C)(C)N2 [Example 474, 7-Fluoro-9-methoxy-1,4,4-trimethyl-8-[6-(trifluoromethyl)-1H-indol-4-yl]-5H-[1,2,4]triazolo[4,3-a] quinoxaline]
13 | 100 to 1000 nM | Cc1c(-c2cccc3c2ccn3S(C)(=O)=O)ccc2c1-n1c(C)nnc1C(C)(C)N2 [Example 450, 1,4,4,9-tetramethyl-8-(1-(methylsulfonyl)-1H-indol-4-yl)-4,5-dihydro-[1,2,4]triazolo[4,3-a]quinoxaline]
14 | < 100 nM | COc1cc2c(c(C(F)(F)F)c1-c1cc(F)cc3c(C4CC4)c[nH]c13)-n1c(C)nnc1C(C)(C)N2 [Example 482, 8-(3-Cyclopropyl-5-fluoro-1H-indol-7-yl)-7-methoxy-1,4,4-trimethyl-9-(trifluoromethyl)-5H-[1,2,4]triazolo[4,3-a]quinoxaline]
15 | < 100 nM | Cc1c[nH]c2c(-c3ccc4c(c3C(F)F)-n3c(C)nnc3C(C)(C)N4)cc(F)cc12 [Example 527, 9-(Difluoro-methyl)-8-(5-fluoro-3-methyl-1H-indol-7-yl)-1,4,4-trimethyl-5H-[1,2,4]triazolo [4,3-a]quinoxaline]
16 | < 100 nM | Cc1c(-c2cccc3c2ccn3C)c(F)cc2c1-n1c(C)nnc1C(C)(C)N2 [Example 486, 7-Fluoro-1,4,4,9-tetramethyl-8-(1-methyl-1H-indol-4-yl)-5H-[1,2,4]triazolo[4,3-a]quinoxaline]
17 | 100 to 1000 nM | Cc1c(-c2cc(F)cc3c2ccn3CCO)ccc2c1-n1c(C)nnc1C(C)(C)N2 [Example 451, 2-[6-Fluoro-4-(1,4,4,9-tetramethyl-5H-[1,2,4]triazolo[4,3-a]quinoxalin-8-yl)-1H-indol-1-yl]-ethanol]
18 | < 100 nM | COc1c(-c2cc(F)cc3c(C4CC4)c[nH]c23)c(F)cc2c1-n1c(C)nnc1C(C)(C)N2 [Example 483, 8-(3-Cyclopropyl-5-fluoro-1H-indol-7-yl)-7-fluoro-9-methoxy-1,4,4-trimethyl-5H-[1,2,4]triazolo[4,3-a] quinoxaline]
19 | 100 to 1000 nM | Cc1c(-c2cc(Cl)cc3[nH]ccc23)c(F)cc2c1-n1c(C)nnc1C(C)(C)N2 [Example 513, 8-(6-Chloro-1H-indol-4-yl)-7-fluoro-1,4,4,9-tetramethyl-5H-[1,2,4]triazolo[4,3-a]quinoxaline]
20 | 100 to 1000 nM | Cc1nnc2n1-c1c(cc(F)c(-c3cccc4c3ccn4C3CC3)c1C(F)F)NC2(C)C [Example 514, 8-(1-Cyclopropyl-1H-indol-4-yl)-9-(difluoro-methyl)-7-fluoro-1,4,4-trimethyl-5H-[1,2,4]triazolo[4,3-a]quinoxaline]
